{"source": "patent US20200390850A1", "about": "“PEPTIDES AND USES THEREOF” (LATERAL IP PTY LTD, priority 2018, published 2020)", "key": {"[1]": {"test_system": "rats with CFA-induced inflammation", "experiment": "Paw withdrawal threshold in CFA-induced inflammatory (nociceptive) pain", "format": "in vivo, rat", "conditions": "3 mg/kg body weight; at 1 and 2 hours after administration", "protocol": "Briefly, rats were anaesthetized with 3% isoflurane mixed with 97% oxygen. The left paw was injected with 0.05 ml CFA emulsion (F5881, Sigma-Aldrich) in saline (CFA:saline=1:1, vol./vol.). After CFA injection, the animals were returned to their home cages. Regular observations were be carried out to monitor the conditions of the animals after injection."}, "[2]": {"experiment": "Ex vivo metabolism of LAT8881 in rat whole blood", "format": "in vitro ADME", "protocol": "(§1) Human or rat blood was collected into K2EDTA tubes and approximately 2.94 mL of blood was transferred into a polypropylene tube and kept in a water bath at 37° C. […] At the indicated times, approximately 300 μL of the spiked blood sample was transferred into a vial containing 30 μL of OX Protease Inhibitor Cocktail (Sigma Aldrich; Product No. P2714), mixed well and centrifuged at 4° C. The plasma fraction was then collected, transferred into polypropylene tubes and stored at -80° C. […] […] NO:11)) and vortex-mixed with 200 μL of acetonitrile for 5 min at 1500 rpm. The resulting mixture was then centrifuged at 14000 rpm for 5 min and the supernatant was evaporated at 37° C. under a stream of nitrogen to dryness. The residue was reconstituted in 150 μL of reconstitution solution and approximately 150 μL of the reconstituted sample was transferred to a 96 well-plate for injection into the LC-MS system. […] The mobile phase was (a) 5% acetonitrile/water with 0.1% formic acid, and (b) 95% acetonitrile/water with 0.1% formic acid. Eluted peaks were analysed using mass spectrometry. For the analysis of LAT9998 (SEQ ID NO:11), a 5 μL aliquot of each plasma sample was injected into a Shimadzu Nexera UPLC system equipped with a Phenomenex Aeris Peptide XB-C18, 3.6 μm, 150×2.1 mm. The mobile phase was (a) 5% acetonitrile/water with 0.1% formic acid, and (b) 95% acetonitrile/water with 0.1% formic acid. Eluted peaks were analysed using mass spectrometry. Samples were analysed using an AB Sciex QTrap 5500 mass spectrometer with ESI in positive mode. MRM analyses were conducted with Ion Spray (IS) at 5500 V and the Curtain Gas (CUR) was set at 20. Multiple MRM transitions were monitored to ensure the chromatographic peaks observed are from the nominal compound. Results are reported as analyte peak area ratios (normalized versus internal standard peak area)."}, "[3]": {"conditions": "in vivo"}, "[4]": {"experiment": "Ex vivo metabolism of LAT8881 in human whole blood", "format": "in vitro ADME", "protocol": "as §1"}, "Lamina I or II neurones": {"test_system": "Lamina I or II neurones", "experiment": "Whole-cell patch clamp on spinal cord slices with intact dorsal root afferents: evoked post-synaptic currents", "format": "cell-based, rat", "conditions": "comparator; data not shown", "protocol": "An in vitro spinal cord slice with intact dorsal root afferents combined with single-cell whole-cell patch clamp electrophysiological recording techniques was used to assess the electrophysiological properties of the peptide having the amino acid sequence of SEQ ID NO:2.\nSpinal cord slices were prepared from chronic nerve constriction models of neuropathic pain (Chung models) and tested against the peptide of SEQ ID NO:2.\nThe spinal nerve ligation model (Chung model) was first reported by Kim and Chung (1992; Pain, 50(3):355-63) and involves a single tight ligation of the L5 spinal nerve. […] This model has been used as a “gold standard’ model for assessing the efficacy of novel compounds targeting neuropathic pain.\nAdult male Sprague-Dawley rats, 8-9 weeks old, weighing 220-250 g at the time of surgery, were purchased from Charles River UK Ltd. The animals were housed in groups of 4 in an air-conditioned room on a 12-hour light/dark cycle. […] The baseline paw withdrawal threshold (PWT) was examined using a series of graduated von Frey hairs for 3 consecutive days before surgery and re-assessed on the 6th to 8th day after surgery and on the 12th to 14th day after surgery before drug dosing Each rat was anaesthetized with 5% isoflurane mixed with oxygen (2 L per min) followed by an intramuscular (i.m.) injection of ketamine 90 mg/kg plus xylazine 10 mg/kg. […]"}, "[5]": {"test_system": "nerve cells in spinal cord slices", "experiment": "Spontaneous electrical activity in spinal cord slices from Chung model rats", "format": "cell-based, rat", "conditions": "1 μM added to spinal cord slice", "protocol": "Within 2 minutes of addition of 1 μM LATc9991F to the spinal cord slice, this electrical activity was suppressed; * indicates time that LATc9991F was added to the spinal cord slice preparation.\nThis study was undertaken to assess the effect of LATc9991F (SEQ ID NO:10) on spontaneous electrical activity on spinal cord slices from Chung model rats with confirmed neuropathic pain. LATc9991F is a non-human variant of LAT9991F that is derived from the feline, canine and equine variants of human growth hormone, as described in WO 2013/082667.\nBriefly, spinal cord slices were prepared from Chung model rats with confirmed neuropathic pain symptoms, and spontaneous electrical activity was measured as in Example 1. […] Within 2 minutes of addition of LATc9991F to the slice, this electrical activity was suppressed by LATc9991F."}, "Chung rats": {"test_system": "Chung rats", "experiment": "Paw withdrawal threshold in nerve constriction model of neuropathic pain (Chung model)", "format": "in vivo, rat", "conditions": "for paw withdrawal threshold of ipsilateral paw: vs vehicle", "protocol": "Briefly, adult male Sprague-Dawley rats, 8-9 weeks old, weighing 220-250 g at the time of surgery, were purchased from Charles River UK Ltd.\nThe animals were housed in groups of 4 in an air-conditioned room on a 12-hour light/dark cycle. Food and water were available ad libitum. They were allowed to acclimatise to the experimental environment for three days by leaving them on a raised metal mesh for at least 40 min. The baseline paw withdrawal threshold (PWT) was examined using a series of graduated von Frey hairs for 3 consecutive days before surgery and re-assessed on the 6th to 8th day after surgery and on the 12th to 14th day after surgery before drug dosing.\nEach rat was anaesthetized with 5% isoflurane mixed with oxygen (2 L per min) followed by an intramuscular (i.m.) injection of ketamine 90 mg/kg plus xylazine 10 mg/kg. The back was shaved and sterilized with povidone-iodine. The animal was placed in a prone position and a para-medial incision was made on the skin covering the L4-6 level. The L5 spinal nerve was carefully isolated and tightly ligated with 6/0 silk suture. The wound was then closed in layers after a complete hemostasis. A single dose of antibiotics (Amoxipen, 15 mg/rat, i.p.) was routinely given for prevention of infection after surgery. The animals were placed in a temperature-controlled recovery chamber until fully awake before being returned to their home cages.\nThe vehicle (1% DMSO in PBS) and LAT8881 (AOD9604, GL449; provided by Lateral Pharma Pty Ltd) was administrated intramuscularly (i.m.) into the leg of the side contralateral to the site of injury. Dosing was carried out by a second experimenter. The rats with validated neuropathic pain state were randomly divided into 5 experimental groups: 1 ml/kg vehicle, 0.1, 0.5, 1 and 5 mg/kg LAT8881.\nEach group had 8 animals. The animals were placed in individual Perspex boxes on a raised metal mesh for at least 40 minutes before the test. Starting from the filament of lowest force (about 1 g), each filament was applied perpendicularly to the centre of the ventral surface of the paw until slightly bent for 6 seconds. If the animal withdrew or lifted the paw upon stimulation, then a hair with force immediately lower than that tested was used. If no response was observed, then a hair with force immediately higher was tested. The lowest amount of force required to induce reliable responses (positive in 3 out of 5 trials) was recorded as the value of PWT.\nThe drug test was carried out on the 12th to 14th day after surgery. PWT were assessed before, 1, 2 and 4 hours following drug or vehicle administration. The animals were rested by being returned to their home cages (about 30-60 min) between two neighbouring testing time points. LAT8881 was administered by a single intramuscular injection (IM) in the ipsilateral limb at a dose of about 0.1 mg/kg body weight to about 5 mg/kg body weight.\nLAT9991 was administered by a single intramuscular injection (IM) in the ipsilateral limb at a dose of about 0.1 mg/kg body weight to about 5 mg/kg body weight.\nGabapentin, as a positive control, obtained from Actavis, UK (Lot No. GJ29), was administered orally at 100 mg/2 ml/kg in normal saline. Dosing was carried out by a second experimenter.\nBriefly, LAT9991F was administered orally at a dose of about 1 mg/kg body weight to about 5 mg/kg body weight.\nBriefly, LAT9991 was administered orally at a dose of about 1 mg/kg body weight, 2 mg/kg body weight and 5 mg/kg body weight."}}, "note": "Like-named read-outs stand apart in the source and are kept apart here. Positions of bridges follow the written chain, without caps; N, C: chain ends. Residues, ends and D or L forms follow the SMILES beside them."}
{"compound": "CN1CC[C@]23c4c5ccc(O)c4O[C@H]2[C@@H](O)C=C[C@H]3[C@H]1C5", "note": "[morphine]", "values": [{"measurement": "analgesic effect on nociceptive pain (paw withdrawal threshold)", "setting": "[1]", "result": "significant analgesic effect"}]}
{"compound": "CC[C@H](C)[C@H](NC(=O)[C@H](CCCNC(=N)N)NC(=O)[C@H](CC(C)C)NC(=O)[C@@H](N)Cc1ccc(O)cc1)C(=O)N[C@H](C(=O)N[C@@H](CCC(N)=O)C(=O)N[C@H]1CSSC[C@@H](C(=O)NCC(=O)N[C@@H](Cc2ccccc2)C(=O)O)NC(=O)[C@H](CO)NC(=O)CNC(=O)[C@H](CCC(=O)O)NC(=O)[C@H](C(C)C)NC(=O)[C@H](CO)NC(=O)[C@H](CCCNC(=N)N)NC1=O)C(C)C", "note": "[LAT8881, YLRIVQCRSVEGSCGF] (H-YLRIVQCRSVEGSCGF-OH; disulfide 7-14; N-terminus and C-terminus assumed)", "values": [{"measurement": "half-life", "setting": "[2]; rat blood, LAT8881-spiked, 37° C., read-out: ex vivo half-life", "result": "3 to 6", "unit": "min"}, {"measurement": "half-life", "setting": "[3]", "result": "< 1", "unit": "min"}, {"measurement": "half-life", "setting": "[4]; human blood, LAT8881-spiked, 37° C., read-out: ex vivo half-life", "result": "3 to 6", "unit": "min"}]}
{"compound": "human growth hormone: human growth hormone, comparator in the spinal cord slice recording", "values": [{"measurement": "effect on post-synaptic current", "setting": "Lamina I or II neurones", "result": "no effect"}]}
{"compound": "CRRFVESSCA (listed as Canis lupus) [LATc9991F, non-human variant of LAT9991F derived from the feline, canine and equine variants of human growth hormone]", "values": [{"measurement": "spontaneous electrical activity in nerve cells", "setting": "[5]", "result": "suppressed"}, {"measurement": "time after addition within which electrical activity was suppressed", "setting": "[5]", "result": "≤ 2", "unit": "min"}]}
{"compound": "CRSVEGSC (listed as Homo sapiens) [LAT9998, metabolite of LAT8881]", "values": [{"measurement": "Detection of LAT9998 (peak area ratio) in all samples", "setting": "[2]", "result": "LAT9998 peaks were not detectable"}, {"measurement": "Detection of LAT9998 (peak area ratio) in all samples", "setting": "[4]", "result": "LAT9998 peaks were not detectable"}]}
{"compound": "CRSVEGSCG (listed as Homo sapiens) [LAT9991]", "values": [{"measurement": "analgesic effect compared with gabapentin at 100 mg/kg body weight orally", "setting": "Chung rats; 5 mg/kg body weight PO", "result": "comparable"}, {"measurement": "analgesic effect compared with gabapentin at 100 mg/kg body weight", "setting": "Chung rats; 5 mg/kg body weight i.m.", "result": "comparable"}, {"measurement": "effect on the contralateral paw responses", "setting": "Chung rats; PO", "result": "No effect"}, {"measurement": "time after administration within which effect on paw withdrawal threshold was observed", "setting": "Chung rats; PO", "result": "≤ 1", "unit": "h"}, {"measurement": "time for which effect on paw withdrawal threshold was maintained", "setting": "Chung rats; PO", "result": "at least 4 hours"}, {"measurement": "improvement in paw withdrawal threshold compared with LAT8881", "setting": "Chung rats; PO, vs Example 7", "result": "comparable"}, {"measurement": "effect on the contralateral paw", "setting": "Chung rats; i.m.", "result": "no effect"}, {"measurement": "time after administration within which effect on paw withdrawal threshold was observed", "setting": "Chung rats; i.m.", "result": "≤ 1", "unit": "h"}, {"measurement": "time for which effect on paw withdrawal threshold was maintained", "setting": "Chung rats; i.m.", "result": "at least 4 hours"}, {"measurement": "improvement in paw withdrawal threshold compared with LAT8881", "setting": "Chung rats; i.m., vs Example 5", "result": "comparable"}, {"measurement": "biological activity compared to the parent peptide LAT8881 (magnitude and duration of neuropathic analgesia)", "setting": "Chung rats; nerve constriction model", "result": "equivalent or substantially equivalent"}, {"measurement": "paw withdrawal threshold of ipsilateral paw", "setting": "Chung rats; oral gavage 1, 2 and 5 mg/kg body weight", "result": "significant dose-dependent improvement"}, {"measurement": "paw withdrawal threshold of ipsilateral paw", "setting": "Chung rats; single i.m. injection, about 0.1 to 5 mg/kg body weight", "result": "significant dose-dependent improvement"}]}
{"compound": "CC(C)[C@@H]1NC(=O)[C@H](CO)NC(=O)[C@H](CCCNC(=N)N)NC(=O)[C@@H](N)CSSC[C@@H](C(=O)NCC(=O)N[C@@H](Cc2ccccc2)C(=O)O)NC(=O)[C@H](CO)NC(=O)CNC(=O)[C@H](CCC(=O)O)NC1=O", "note": "[LAT9991F, CRSVEGSCGF] (H-CRSVEGSCGF-OH; disulfide 1-8; N-terminus and C-terminus assumed)", "values": [{"measurement": "half-life", "setting": "[2]; rat, blood", "result": "> 60", "unit": "min"}, {"measurement": "half-life", "setting": "[4]; human, blood", "result": "> 60", "unit": "min"}]}
